Test results published in PMC12802263 (mBio, 2025).

Legend:
DncV = DncV (Vibrio cholerae, UniProt Q9KVG7); experiment: biochemical
CapV = CapV (Vibrio cholerae, UniProt Q9KVG8); details: 50 mM Na3PO4, pH 7.4, 300 mM NaCl, 10% glycerol, 37 °C
CapV, sequence (Q9KVG8 whole entry, looked up): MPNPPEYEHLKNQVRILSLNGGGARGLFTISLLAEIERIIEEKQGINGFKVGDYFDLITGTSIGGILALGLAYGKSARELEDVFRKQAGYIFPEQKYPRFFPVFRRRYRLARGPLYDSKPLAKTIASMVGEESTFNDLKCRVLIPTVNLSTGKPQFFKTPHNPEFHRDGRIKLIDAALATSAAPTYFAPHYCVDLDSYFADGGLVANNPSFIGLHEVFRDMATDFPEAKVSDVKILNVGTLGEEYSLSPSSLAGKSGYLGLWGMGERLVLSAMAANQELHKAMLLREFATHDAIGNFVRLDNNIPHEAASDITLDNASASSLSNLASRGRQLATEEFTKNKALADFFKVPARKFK

DncV, sequence (Q9KVG7 whole entry, looked up): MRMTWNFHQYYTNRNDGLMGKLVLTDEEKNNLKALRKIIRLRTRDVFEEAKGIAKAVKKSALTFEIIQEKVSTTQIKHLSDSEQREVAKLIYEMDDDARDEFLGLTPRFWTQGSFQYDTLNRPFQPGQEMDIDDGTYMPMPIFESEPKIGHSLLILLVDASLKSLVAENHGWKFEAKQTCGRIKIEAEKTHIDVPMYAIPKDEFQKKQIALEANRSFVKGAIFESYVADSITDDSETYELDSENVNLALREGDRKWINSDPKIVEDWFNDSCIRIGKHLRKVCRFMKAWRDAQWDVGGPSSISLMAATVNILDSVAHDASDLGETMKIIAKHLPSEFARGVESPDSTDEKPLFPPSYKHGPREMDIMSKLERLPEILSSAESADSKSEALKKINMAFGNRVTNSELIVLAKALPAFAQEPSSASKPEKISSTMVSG

## Nc1nc2c(ncn2[C@@H]2O[C@H](COP(=O)(O)OP(=O)(O)OP(=O)(O)O)[C@@H](O)[C@H]2O)c(=O)[nH]1 [GTP]
DncV
  Kd: 2.63 µM

## CCCC(=O)Oc1ccc2nc3ccc(=O)cc-3oc2c1 [Resorufin butyrate]
CapV
  fluorogenic phospholipase assay (ex 550 / em 591 nm): phospholipase activity of the proteins CapV and CapV^S62A was detected using the fluorescent substrate Resorufin

## Nc1nc2c(c(=O)[nH]1)N[C@@H](CNc1ccc(C(=O)N[C@@H](CCC(=O)O)C(=O)O)cc1)CN2 [THF, tetrahydrofolate]
DncV
  Kd: 3.59 µM
